According to patent US20260297060A1, “COMPOUNDS FOR THE DEGRADATION OF MUTANT BRAF” (C4 THERAPEUTICS, INC., priority 2023, published 2026):

Experiments:
[1] = Example 9 pharmacokinetics assay for the PK and PD study Part I, II and III (plasma, tumor, liver); format: in vivo, BALB/c nude mice; conditions: mouse, po, 100 mg/kg, p.o., single dose, ± SEM
Method: (§1) For the PK and PD study Part I, agents were administered to BALB/c nude mice bearing A375 human melanoma xenografts tumors. Dabrafenib, Compound 218 and Compound 157 were dosed via p.o. once on day 1. Dabrafenib was dosed at 100 mg/kg. Compound 218 and Compound 157 were dosed at 10 mg/kg.
For the PK and PD study Part II, agents were administered to BALB/c nude mice bearing A375 human melanoma xenografts tumors. Compound 133, Compound 144 and Compound 198 were dosed at 10 mg/kg via p.o. once on day 1.
For the PK and PD study Part III, agent was administered to BALB/c nude mice bearing A375 human melanoma xenografts tumors. Compound 204 were dosed at 10 mg/kg via p.o. once on day 1.
(§2) The plasma samples were collected at predetermined time points for PK analysis. The mice were euthanized at predetermined time points post the treatment. The blood samples were collected into the 1.5 mL Eppendorf tubes containing 15 μL of 0.5 M EDTA-K2. And then the anticoagulant blood samples were centrifuged at 2,500 g at 4° C. for 15 minutes. The plasma samples were separated into 2 aliquots. The 1st was used for PK analysis, and the 2nd served as backup. The samples were stored at −80° C. before bioanalysis.
(§3) The tumor samples were collected at predetermined time points for PK and WB analysis. The tumor was dissected out and split into 3 parts. The 1st part was used for PK analysis, the 2nd part was used for WB analysis and the last one served as backup for study. The samples were transferred into pre-labeled tubes and quickly froze in liquid nitrogen within 2 minutes after dissection. The samples were stored at −80° C. before bioanalysis.
(§4) Liver samples were collected at predetermined time points for PK analysis. The left lobe of the liver was dissected out and split into 2 parts. The 1st part was used for PK analysis and the 2nd part served as the backup for the study. The samples were transferred into pre-labeled tubes and quickly froze in liquid nitrogen within 2 minutes after dissection. The samples were stored at −80° C. before bioanalysis.
The harvested plasma, tumor and liver samples were processed for pharmacokinetics analysis by LC-MS/MS with a concentration range of 5.00-10,000 ng/mL for Compound 218, Compound 157 and Compound 133 in plasma, 0.500-1,000 ng/ml for Compound 218 in liver and tumor homogenate, 0.200-400 ng/mL for Compound 157, Dabrafenib and Compound 133 in liver and tumor homogenate, 0.500-1000 ng/mL for Dabrafenib and Compound 204 in plasma, 0.200-200 ng/mL for Compound 204 in liver and tumor homogenate, 20.0-20,000 ng/mL for Compound 144 and Compound 198 in plasma, 1.00-1,000 ng/mL for Compound 144 and Compound 198 in liver and tumor homogenate.

[2] = Example 7 pharmacokinetics assay for PKPD study (plasma, tumor, liver); format: in vivo, BALB/c nude mice; conditions: mouse, po, 100 mg/kg, p.o., single dose
Method: as §1, with “study,” for “study Part I,”, “141, Compound 118, Compound 156,” for “218”, “180” for “157”, “dosed” for “dosed via”, “1. Known BRAF inhibitor Dabrafenib was used as a positive control.” for “1.”
as §2, §3, §4
The harvested plasma and liver samples were processed for pharmacokinetics analysis by LC-MS/MS with a concentration range of 0.500-1000 ng/mL for Dabrafenib, Compound 118 and Compound 180 in plasma, 0.100~200 ng/ml for Dabrafenib in Liver and tumor homogenate, 50.0~50,000 ng/mL for Compound 141 in plasma and Liver homogenate, 1.00-1000 ng/ml for Compound 141 in tumor homogenate, 2.00~2000 ng/mL for Compound 118 and Compound 180 in Liver and 0.200~200 ng/ml in tumor homogenate, 1.00~2000 ng/mL for Compound 156 in plasma, 0.500-1000 ng/ml in liver and 0.500-1,000 ng/ml in tumor homogenate.

[3] = liver, read-out: Mean Concentration in Liver
[4] = plasma, read-out: Mean Concentration in Plasma
[5] = tumor, read-out: Mean Concentration in Tumor
[6] = liver, read-out: Concentration in Liver (mean ± SEM)
[7] = plasma, read-out: Concentration in Plasma (mean ± SEM)
[8] = tumor, read-out: Concentration in Tumor (mean ± SEM)

CC(C)(C)c1nc(-c2cccc(NS(=O)(=O)c3c(F)cccc3F)c2F)c(-c2ccnc(N)n2)s1 [Dabrafenib, dabrafenib, reference compound] showed a concentration at 6 h [1, 3] of 1010 ± 111 ng/g, a concentration at 12 h [1, 3] of 277 ± 125 ng/g and a concentration at 1 h [1, 4] of 5920 ± 2380 ng/mL. For the same molecule, the concentration at 6 h [1, 4] was 259 ± 45.4 ng/mL, the concentration at 12 h [1, 4] was 88.7 ± 42.7 ng/mL and the concentration at 24 h [1, 4] was 1.09 ± 0.467 ng/mL. It also gave a concentration at 1 h [1, 5] of 4920 ± 1490 ng/g, a concentration at 6 h [1, 5] of 237 ± 4.91 ng/g and a concentration at 12 h [1, 5] of 54 ± 13.5 ng/g. For the same molecule, the concentration at 24 h [1, 5] was 1.87 ± 0.9 ng/g, the concentration at 6 h [2, 6] was 2450 ± 737 ng/g and the concentration at 12 h [2, 6] was 1110 ± 453 ng/g. For the same molecule, the concentration at 1 h [2, 7] was 7370 ± 865 ng/mL, the concentration at 6 h [2, 7] was 1140 ± 390 ng/mL and the concentration at 12 h [2, 7] was 336 ± 137 ng/mL. It also gave a concentration at 24 h [2, 7] of 3.88 ± 2.43 ng/mL, a concentration at 1 h [2, 8] of 9520 ± 2050 ng/g and a concentration at 6 h [2, 8] of 702 ± 341 ng/g. For the same molecule, the concentration at 12 h [2, 8] was 242 ± 96 ng/g and the concentration at 24 h [2, 8] was 5.53 ± 0.951 ng/g.
